# Assay results as given in ChEMBL document CHEMBL1201862, “PubChem BioAssay data set” (2004).
# Activity calls are given as the source filed them.
# Assays:
# [1] = target: Short transient receptor potential channel 6 (Mus musculus, UniProt Q61143); experiment: TRPC6 inhibition potency of TRPC4 inhibitor analogs, dose response, selectivity assay for selective TRPC4 inhibitor project, HEK293 cells, membrane potential dye, IC50 (AID 492987); format: functional, cell-based
# [2] = inhibitors of firefly luciferase expression or activity, dose response, H4 neuroglioma cells, luminescence (AID 1990); format: functional, cell-based
# [3] = inhibitors of SNCA 5'UTR-driven reporter translation, confirmation, H4 neuroglioma cells, luminescence (AID 1988); format: functional, cell-based
# HEK293 = experiment: inhibitors of LMP1-driven NF-kB reporter, dose response, cell-based, HEK293, luciferase, cherry-pick (AID 588343); format: functional; conditions: Homo sapiens
# [4] = Artemis endonuclease inhibitor potency, dose response, biochemical, fluorescence intensity (AID 720701); format: functional;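 also: Artemis endonuclease enzyme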
# [5] = Luminescence Cell-Based Dose Response HTS to Identify Inhibitors of 5'UTR Stem-Loop Driven Prion Protein mRNA Translation in H4 Neuroglioblastoma Cells. [Related pubchem assays: 1827 (Project Summary), 1813 (Primary HTS)]; format: functional
# [6] = target: T1, Apoptotic protease-activating factor 1 (Homo sapiens, UniProt O14727); format: functional
# T1 sequence (O14727 whole entry): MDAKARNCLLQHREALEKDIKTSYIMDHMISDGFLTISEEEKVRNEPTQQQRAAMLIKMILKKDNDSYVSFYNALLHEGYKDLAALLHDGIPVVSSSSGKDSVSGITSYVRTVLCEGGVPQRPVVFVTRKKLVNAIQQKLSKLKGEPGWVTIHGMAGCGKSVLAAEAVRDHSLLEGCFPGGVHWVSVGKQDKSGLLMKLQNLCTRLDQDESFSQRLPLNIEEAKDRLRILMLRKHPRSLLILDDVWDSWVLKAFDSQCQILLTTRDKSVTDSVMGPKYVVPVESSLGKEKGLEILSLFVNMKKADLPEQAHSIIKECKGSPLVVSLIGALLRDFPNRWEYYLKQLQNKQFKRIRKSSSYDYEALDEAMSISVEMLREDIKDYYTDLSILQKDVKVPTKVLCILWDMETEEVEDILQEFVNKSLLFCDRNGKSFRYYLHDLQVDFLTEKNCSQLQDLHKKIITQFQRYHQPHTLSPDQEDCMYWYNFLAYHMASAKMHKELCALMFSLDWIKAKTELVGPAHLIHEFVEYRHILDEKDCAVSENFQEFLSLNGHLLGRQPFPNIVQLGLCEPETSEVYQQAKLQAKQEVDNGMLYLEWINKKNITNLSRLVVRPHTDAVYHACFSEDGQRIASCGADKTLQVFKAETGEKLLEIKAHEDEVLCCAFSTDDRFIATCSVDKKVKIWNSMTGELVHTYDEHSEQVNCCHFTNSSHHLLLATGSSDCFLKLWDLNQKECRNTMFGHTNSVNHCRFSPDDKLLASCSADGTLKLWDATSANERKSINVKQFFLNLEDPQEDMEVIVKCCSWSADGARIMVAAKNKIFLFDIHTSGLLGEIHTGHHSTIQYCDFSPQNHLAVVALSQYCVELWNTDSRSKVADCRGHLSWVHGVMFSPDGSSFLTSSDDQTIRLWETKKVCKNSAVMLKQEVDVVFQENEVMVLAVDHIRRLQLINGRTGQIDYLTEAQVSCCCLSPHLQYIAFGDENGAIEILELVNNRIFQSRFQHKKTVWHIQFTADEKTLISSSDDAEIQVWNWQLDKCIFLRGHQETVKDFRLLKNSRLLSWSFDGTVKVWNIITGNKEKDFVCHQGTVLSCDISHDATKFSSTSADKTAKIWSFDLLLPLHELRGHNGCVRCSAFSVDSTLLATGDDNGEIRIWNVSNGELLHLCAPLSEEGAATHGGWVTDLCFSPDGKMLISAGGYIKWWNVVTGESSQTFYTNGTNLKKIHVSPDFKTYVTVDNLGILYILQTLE
# INS1 [7] = experiment: caspase-3/7 inhibition in cytokine-treated INS-1E, dose response, beta-cell apoptosis inhibitor project, cell-based, caspase luminescence, dry powder (AID 488848); format: functional; conditions: Rattus norvegicus
# [8] = C. albicans growth with fluconazole, confirmation, fluorescence, retest (AID 2467); format: functional, cell-based
# [9] = target: T2, Replicative DNA helicase DnaB (Mycobacterium tuberculosis, UniProt P9WMR3); experiment: DnaB intein splicing inhibitors, dose response, biochemical, cell-free fluorescence (AID 449749); format: functional
# T2 sequence (P9WMR3 whole entry): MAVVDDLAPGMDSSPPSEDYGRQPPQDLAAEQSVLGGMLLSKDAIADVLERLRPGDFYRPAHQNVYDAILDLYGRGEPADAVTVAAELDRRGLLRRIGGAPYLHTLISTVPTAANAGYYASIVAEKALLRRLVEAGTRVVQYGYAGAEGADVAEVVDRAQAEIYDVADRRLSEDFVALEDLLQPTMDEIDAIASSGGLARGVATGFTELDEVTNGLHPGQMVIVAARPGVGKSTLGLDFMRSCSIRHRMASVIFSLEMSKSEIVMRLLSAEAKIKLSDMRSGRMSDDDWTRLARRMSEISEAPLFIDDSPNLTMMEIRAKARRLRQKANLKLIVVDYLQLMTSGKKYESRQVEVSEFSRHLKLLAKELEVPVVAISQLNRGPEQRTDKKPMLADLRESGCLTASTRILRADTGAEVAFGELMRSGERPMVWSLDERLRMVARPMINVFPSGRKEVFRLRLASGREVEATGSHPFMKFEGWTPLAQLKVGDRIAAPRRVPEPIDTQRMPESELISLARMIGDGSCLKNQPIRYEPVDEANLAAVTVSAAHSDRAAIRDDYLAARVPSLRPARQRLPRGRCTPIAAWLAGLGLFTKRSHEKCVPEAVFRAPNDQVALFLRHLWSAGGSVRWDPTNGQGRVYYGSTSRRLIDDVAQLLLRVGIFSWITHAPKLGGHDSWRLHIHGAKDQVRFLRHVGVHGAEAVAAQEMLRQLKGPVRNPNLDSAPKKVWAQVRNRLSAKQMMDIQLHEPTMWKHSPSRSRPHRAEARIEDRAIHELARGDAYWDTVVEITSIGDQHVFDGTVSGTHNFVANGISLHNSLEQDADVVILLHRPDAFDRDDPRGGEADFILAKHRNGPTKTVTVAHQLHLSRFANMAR
# INS1 [10] = experiment: beta cell apoptosis inhibitors, cytokine rescue, dose response, luminescence, retest (AID 449756); format: functional, cell-based; conditions: Rattus norvegicus, INS1;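 also: cell death triggered by IL-1 beta plus TNF-alpha plus IFN-gamma mixture; protective hits raise ATP signal compared with cytokine alone wells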
# [11] = NIH-3T3 fibroblast cytotoxicity, dose response, cytotoxicity control, cell-based, fluorescence, Alamar Blue, secondary assay (AID 2327); format: functional;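 also: NIH-3T3 mouse fibroblasts cultured with fluconazole at 8 µg/mL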
# [12] = target: Serine/threonine-protein phosphatase (Candida dubliniensis (strain CD36 / CBS 7987 / NCPF 3949 / NRRLY-17841) (Yeast), UniProt B9W6M3); experiment: calcineurin pathway inhibitors in yeast reporter, dose response, S. cerevisiae, CDRE-lacZ, luminescence, secondary (AID 2388); format: functional, cell-based;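 also: yeast reporter cells carrying a calcineurin-responsive lacZ construct stimulated with calcium chloride; luminescent beta-galactosidase reporter signal in whole cells rather than isolated phosphatase activity; potency for inhibition where a drop in reporter signal means calcineurin blockade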
# [13] = target: ATP-dependent molecular chaperone HSP82 (Candida albicans (strain WO-1) (Yeast), UniProt C4YTQ8); experiment: loss of DOC-induced GRE-beta-galactosidase reporter signal, dose response, Hsp90 inhibitor project, S. cerevisiae, luminescence (AID 2400); format: functional, cell-based;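 also: beta-galactosidase luminescence from glucocorticoid response element reporter as proxy for Hsp90 function; inhibitor potency where signal loss means Hsp90 inhibition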
# [14] = inhibitors of intracellular T. cruzi replication, confirmation, NIH3T3 host cells, beta-gal luminescence (AID 2044); format: functional, cell-based;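 also: intracellular parasites grown in NIH/3T3 mouse fibroblasts as host cells; luminescent beta-galactosidase reporter signal from transgenic T. cruzi replicating inside host cells; inhibitors lower the luminescence signal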
# Protein RecA = target: T3, Protein RecA (Mycobacterium tuberculosis, UniProt P9WHJ3); experiment: Fluorescence Cell-Free Homogeneous Dose Retest to Identify Inhibitors of RecA-Intein Splicing Activity. [Related pubchem assays (depositor defined):AID2097, AID2223, AID489010, AID492950]; format: functional
# T3 sequence (P9WHJ3 whole entry): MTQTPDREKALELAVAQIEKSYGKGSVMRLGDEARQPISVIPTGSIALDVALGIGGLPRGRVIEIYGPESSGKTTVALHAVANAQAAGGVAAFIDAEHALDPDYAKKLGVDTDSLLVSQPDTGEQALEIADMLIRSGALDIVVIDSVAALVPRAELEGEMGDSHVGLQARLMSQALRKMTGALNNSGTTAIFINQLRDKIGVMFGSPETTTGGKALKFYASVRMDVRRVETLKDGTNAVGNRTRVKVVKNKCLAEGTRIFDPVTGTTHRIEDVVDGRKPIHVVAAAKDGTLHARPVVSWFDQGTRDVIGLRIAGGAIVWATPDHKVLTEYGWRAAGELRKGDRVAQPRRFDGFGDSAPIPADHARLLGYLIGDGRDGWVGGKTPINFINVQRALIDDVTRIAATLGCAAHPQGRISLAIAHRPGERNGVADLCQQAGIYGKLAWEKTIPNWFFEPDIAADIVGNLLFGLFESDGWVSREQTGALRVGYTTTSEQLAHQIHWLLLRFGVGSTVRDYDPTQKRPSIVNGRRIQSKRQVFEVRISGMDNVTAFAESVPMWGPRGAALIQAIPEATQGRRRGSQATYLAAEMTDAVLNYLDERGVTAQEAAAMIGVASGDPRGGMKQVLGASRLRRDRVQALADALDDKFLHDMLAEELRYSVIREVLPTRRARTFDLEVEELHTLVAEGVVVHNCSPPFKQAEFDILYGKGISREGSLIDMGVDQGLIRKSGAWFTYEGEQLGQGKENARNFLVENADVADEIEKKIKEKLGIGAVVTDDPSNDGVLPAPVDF
# [15] = cytotoxicity toward NIH3T3 fibroblasts, dose response, counter-screen, cell-based, ATP luminescence, mouse fibroblasts (AID 2010); format: functional;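 also: cells exposed to compound for about 90 hours before reading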
# Candida albicans [16] = experiment: growth inhibition of azole-resistant C. albicans, dose response, CaCi-8 strain, Alamar Blue, dry powder, set 2 (AID 488909); format: functional, organism-based
# Candida albicans [17] = experiment: fluconazole resistance reversal in C. albicans, dose response, CaCi-2 strain, Alamar Blue, dry powder, set 4 (AID 488943); format: functional, organism-based
# Candida albicans [18] = experiment: C. albicans growth inhibition with fluconazole, dose response, antifungal resistance reversal project, CaCi-2 strain, Alamar Blue, dry powder, set 2 (AID 488930); format: functional, organism-based
# Candida albicans [19] = experiment: growth inhibition of resistant C. albicans, dose response, CaCi-8 strain, fluconazole, dry powder, set 4 (AID 488950); format: functional, organism-based
# Serine/threonine-protein phosphatase, sequence (B9W6M3 whole entry): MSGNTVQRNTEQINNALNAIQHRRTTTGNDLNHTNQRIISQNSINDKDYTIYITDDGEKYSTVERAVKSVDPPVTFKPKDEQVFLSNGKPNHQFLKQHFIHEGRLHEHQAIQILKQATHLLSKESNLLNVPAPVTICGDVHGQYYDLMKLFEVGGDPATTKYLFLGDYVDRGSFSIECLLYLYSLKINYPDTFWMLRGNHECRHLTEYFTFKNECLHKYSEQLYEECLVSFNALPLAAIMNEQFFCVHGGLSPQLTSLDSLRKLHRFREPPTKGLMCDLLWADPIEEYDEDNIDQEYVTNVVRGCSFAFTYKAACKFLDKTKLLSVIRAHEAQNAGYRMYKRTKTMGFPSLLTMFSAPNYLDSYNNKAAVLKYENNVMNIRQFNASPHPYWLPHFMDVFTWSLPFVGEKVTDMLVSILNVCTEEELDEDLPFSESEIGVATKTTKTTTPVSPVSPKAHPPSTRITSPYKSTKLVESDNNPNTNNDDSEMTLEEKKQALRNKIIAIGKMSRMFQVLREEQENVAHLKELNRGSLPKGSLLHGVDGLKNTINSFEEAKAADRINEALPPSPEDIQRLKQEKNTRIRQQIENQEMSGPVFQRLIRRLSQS
# Short transient receptor potential channel 6, sequence (Q61143 whole entry): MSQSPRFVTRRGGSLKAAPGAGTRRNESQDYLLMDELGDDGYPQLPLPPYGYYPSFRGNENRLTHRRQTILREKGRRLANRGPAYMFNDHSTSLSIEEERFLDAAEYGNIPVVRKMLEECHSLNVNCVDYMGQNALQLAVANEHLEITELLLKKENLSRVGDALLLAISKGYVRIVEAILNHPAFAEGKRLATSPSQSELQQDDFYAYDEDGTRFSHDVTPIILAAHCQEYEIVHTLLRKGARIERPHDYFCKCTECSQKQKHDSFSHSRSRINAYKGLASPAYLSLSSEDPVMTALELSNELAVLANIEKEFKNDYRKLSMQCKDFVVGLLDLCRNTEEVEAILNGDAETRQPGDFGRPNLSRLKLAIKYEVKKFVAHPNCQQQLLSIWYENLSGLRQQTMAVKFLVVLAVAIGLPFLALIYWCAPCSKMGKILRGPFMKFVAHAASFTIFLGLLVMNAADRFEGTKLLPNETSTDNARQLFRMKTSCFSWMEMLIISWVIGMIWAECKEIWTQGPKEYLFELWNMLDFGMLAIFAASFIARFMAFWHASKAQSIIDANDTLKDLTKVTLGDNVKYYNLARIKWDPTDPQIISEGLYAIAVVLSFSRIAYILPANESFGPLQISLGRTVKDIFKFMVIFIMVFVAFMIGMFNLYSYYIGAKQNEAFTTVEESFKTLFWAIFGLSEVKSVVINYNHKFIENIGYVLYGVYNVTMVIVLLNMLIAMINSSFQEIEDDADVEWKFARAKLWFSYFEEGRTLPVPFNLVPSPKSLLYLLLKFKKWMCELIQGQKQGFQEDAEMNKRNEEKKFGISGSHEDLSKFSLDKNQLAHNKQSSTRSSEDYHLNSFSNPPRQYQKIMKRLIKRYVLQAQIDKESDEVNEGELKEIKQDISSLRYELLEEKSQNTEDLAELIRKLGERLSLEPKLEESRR
# ATP-dependent molecular chaperone HSP82, sequence (C4YTQ8 whole entry): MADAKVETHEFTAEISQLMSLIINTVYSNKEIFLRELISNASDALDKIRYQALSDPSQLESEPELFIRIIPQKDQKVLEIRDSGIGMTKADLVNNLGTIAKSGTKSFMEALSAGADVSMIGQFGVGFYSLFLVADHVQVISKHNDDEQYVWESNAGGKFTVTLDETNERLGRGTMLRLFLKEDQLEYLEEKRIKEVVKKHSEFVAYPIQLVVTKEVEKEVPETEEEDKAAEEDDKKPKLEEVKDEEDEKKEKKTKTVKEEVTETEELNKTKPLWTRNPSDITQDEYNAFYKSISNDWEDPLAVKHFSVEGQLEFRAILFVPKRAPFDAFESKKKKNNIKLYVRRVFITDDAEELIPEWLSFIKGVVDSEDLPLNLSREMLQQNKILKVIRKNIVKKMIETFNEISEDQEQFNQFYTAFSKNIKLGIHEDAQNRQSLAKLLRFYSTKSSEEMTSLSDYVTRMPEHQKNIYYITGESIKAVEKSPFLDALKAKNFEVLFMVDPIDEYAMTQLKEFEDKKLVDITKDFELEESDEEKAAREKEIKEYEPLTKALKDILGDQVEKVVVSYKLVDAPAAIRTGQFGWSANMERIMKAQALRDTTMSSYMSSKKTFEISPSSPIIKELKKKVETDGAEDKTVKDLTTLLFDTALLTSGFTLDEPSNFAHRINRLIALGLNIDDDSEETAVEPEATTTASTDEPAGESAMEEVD
smiles,measurement,setting,value
FC(F)(F)c1cc(N2CCCC2)nc2ccccc12,IC50,[1],23.1 µM (active)
Clc1ccc(-c2cn3nc4c(nc3n2)CCCC4)cc1,EC50,[2],3.45 µM (active)
same,EC50,[3],1.51 µM (active)
same,AC50,HEK293,1.45 µM (active)
same,IC50,[4],> 20 µM (inactive)
same,EC50,[5],5.88 µM (active)
same,IC50,[6],17.5 µM (active)
COc1ccc(S(=O)(=O)N(C)C[C@@H]2Oc3c(NC(=O)Nc4cccc5c4ccn5C)cccc3C(=O)N([C@@H](C)CO)C[C@H]2C)cc1,AC50,INS1 [7],17.5 µM (active)
COc1ccccc1NC1=C(N2CCCCC2)C(=O)c2ccccc2C1=O,EC50,[8],1.02 µM (active)
same,AC50,[9],18.6 µM (active)
same,AC50,INS1 [10],0.916 µM (active)
same,EC50,[11],41.7 µM (active)
same,EC50,[12],> 180 µM (inactive)
same,IC50,[6],3.32 µM (active)
same,EC50,[13],> 160 µM (inactive)
same,EC50,[14],0.56 µM (active)
same,EC50,Protein RecA,1.51 µM (active)
same,EC50,[15],> 30 µM (not active)
O=C(c1cccc(Cl)c1)N1CCN(c2ccnc3cc(Cl)ccc23)CC1,AC50,Candida albicans [16],8.31 µM (active)
same,AC50,Candida albicans [17],2.75 µM (active)
same,AC50,Candida albicans [18],2.33 µM (active)
same,AC50,Candida albicans [19],2.43 µM (active)
